Laboratory results as given in ChEMBL document CHEMBL3745648, “Synthesis, in vitro antibacterial activities of a series of 3-N-substituted canthin-6-ones” (2016).
Values after ≈ are worked out from the molar mass of the structure shown.

What was measured:
Format in all cases: functional
[1] = system: Staphylococcus aureus; assay: Antibacterial activity against Staphylococcus aureus after 12 to 16 hrs by plate reader analysis
[2] = system: Bacillus cereus; assay: Antibacterial activity against Bacillus cereus after 12 to 16 hrs by plate reader analysis
[3] = system: Ralstonia solanacearum; assay: Antibacterial activity against Pseudomonas solanacearum after 12 to 16 hrs by plate reader analysis
[4] = system: Ralstonia solanacearum; assay: Antibacterial activity against Ralstonia solanacearum after 12 to 16 hrs by plate reader analysis

SMILES | MIC [1] [mg/L] | MIC [2] [mg/L] | MIC [3] [mg/L] | MIC [4] [mg/L]
O=C1CCc2nccc3c4ccccc4n1c23 | 125 (≈ 562 µM) | 15.6 (≈ 70.3 µM) | 7.81 (≈ 35.1 µM) | 15.6 (≈ 70.3 µM)
O=C1CCC2c3c(c4ccccc4n31)CCN2Cc1ccccc1 (stereo unspecified) | > 125 | > 125 | > 125 | > 125
Cc1ccc(C[n+]2ccc3c4ccccc4n4c(=O)ccc2c34)cc1.[Cl-] | 1.95 | 15.6 | 7.81 | 31.2
CCCCCCCC[n+]1ccc2c3ccccc3n3c(=O)ccc1c23.[Br-] | 0.98 | 62.5 | 7.81 | 31.2
O=c1ccc2c3c(cc[n+]2Cc2ccc(CBr)cc2)c2ccccc2n13.[Br-] | 7.81 | 62.5 | 31.2 | 31.2
O=c1ccc2c3c(cc[n+]2Cc2ccc(Cl)cc2)c2ccccc2n13.[Cl-] | 7.81 | 15.6 | 15.6 | 15.6
Cc1cccc(C[n+]2ccc3c4ccccc4n4c(=O)ccc2c34)c1.[Cl-] | 1.95 | 15.6 | 7.81 | 15.6
CC[n+]1ccc2c3ccccc3n3c(=O)ccc1c23.[I-] | > 125 | > 125 | > 125 | > 125
O=c1ccc2c3c(cc[n+]2Cc2ccc(F)cc2F)c2ccccc2n13.[Cl-] | 0.98 | 31.2 | 7.81 | 31.2
O=c1ccc2c3c(cc[n+]2Cc2ccccc2)c2ccccc2n13.[Cl-] | 1.95 | 3.91 | 1.95 | 3.91
O=c1ccc2c3c(cc[n+]2Cc2ccc(F)cc2)c2ccccc2n13.[Cl-] | 1.95 | 31.2 | 15.6 | 31.2
O=C1CCC2NCCc3c2n1c1ccccc31 (stereo unspecified) | > 125 | > 125 | > 125 | > 125
O=c1ccc2c3c(cc[n+]2Cc2ccccc2F)c2ccccc2n13.[Cl-] | 1.95 | 7.81 | 3.91 | 15.6
O=c1ccc2c3c(cc[n+]2Cc2c(F)cccc2F)c2ccccc2n13.[Cl-] | 0.98 | 15.6 | 7.81 | 15.6
CC(C)[n+]1ccc2c3ccccc3n3c(=O)ccc1c23.[I-] | > 125 | > 125 | > 125 | > 125
CCCCC[n+]1ccc2c3ccccc3n3c(=O)ccc1c23.[I-] | 31.2 | 62.5 | 15.6 | 31.2
CCC[n+]1ccc2c3ccccc3n3c(=O)ccc1c23.[I-] | > 125 | > 125 | > 125 | > 125
O=c1ccc2c3c(cc[n+]2Cc2ccc(C(F)(F)F)cc2)c2ccccc2n13.[Cl-] | 7.81 | 62.5 | 62.5 | 15.6
C=CC[n+]1ccc2c3ccccc3n3c(=O)ccc1c23.[Br-] | 62.5 | 125 | 62.5 | 62.5
CC(C)C[n+]1ccc2c3ccccc3n3c(=O)ccc1c23.[I-] | 125 | > 125 | 62.5 | > 125
C[n+]1ccc2c3ccccc3n3c(=O)ccc1c23.[I-] | > 125 | > 125 | > 125 | > 125
Cc1ccccc1C[n+]1ccc2c3ccccc3n3c(=O)ccc1c23.[Cl-] | 1.95 | 7.81 | 3.91 | 7.81
O=c1ccc2c3c(cc[n+]2Cc2ccccc2)c2ccccc2n13.[Br-] | 0.98 | 3.91 | 7.81 | 3.91
O=c1ccc2c3c(cc[n+]2Cc2ccc(OCc4ccccc4)cc2)c2ccccc2n13.[Cl-] | 0.98 | 15.6 | 3.91 | 7.81
O=c1ccc2c3c(cc[n+]2[O-])c2ccccc2n13 | 15.6 (≈ 66.2 µM) | 15.6 (≈ 66.2 µM) | 7.81 (≈ 33.1 µM) | 15.6 (≈ 66.2 µM)
CCCC[n+]1ccc2c3ccccc3n3c(=O)ccc1c23.[I-] | 62.5 | 125 | 62.5 | 62.5
CC1(C)S[C@@H]2[C@H](NC(=O)[C@H](N)c3ccccc3)C(=O)N2[C@H]1C(=O)[O-].[Na+] [AMPICILLIN SODIUM] | 3.91 | 3.91 | 7.81 | 7.81
O=c1ccc2nccc3c4ccccc4n1c23 [CANTHIN-6-ONE] | 31.2 (≈ 142 µM) | 7.81 (≈ 35.5 µM) | 3.91 (≈ 17.8 µM) | 7.81 (≈ 35.5 µM)
C[C@@H]1O[C@@H]1P(=O)([O-])[O-].[Na+].[Na+] [PHOSPHOMYCIN DISODIUM] | 3.91 | 3.91 | 125 | 1.95
